# Measured values from patent US6495588B2, “Scytonemin and methods of using thereof” (The Regents of the University of California, priority 2000, dated 2002).
# Legend:
# [1] = test system: PMA-induced mouse ear edema; test: PMA-induced mouse ear edema assay; format: in vivo; settings: topical application
# Description: The efficacy of a scytoneman compound as an anti-inflammatory agent may be established by the following assay. The scytoneman compound is topically applied in acetone to the inside pinnae of the ears of mice in a solution comprising an irritant such as the edema-causing irritant, Phorbol 12-myristate 13-acetate (PMA). Specifically, 2 μg/ear of PMA alone or in combination with 50 μg/ear of the test compound, scytonemin, was applied to the left ears (5 mice per treatment group) and acetone was applied to all right ears. After 3 hours, 20 minutes incubation, the mice were sacrificed, the ears removed and bores taken and weighed. Edema was measured by subtracting the weight of the right ear (acetone control) from the weight of the left ear (treated). Results were recorded as % decrease (inhibition) or % increase (potentiation) in edema relative to the PMA control group edema.
# [2] = test system: tissue myeloperoxidase activity; test: Myeloperoxidase (MPO) enzyme assay of mouse ear biopsies; format: in vivo; settings: topical
# Text: To determine neutrophil influx into inflammed tissue region, the following assay may be conducted. Generally, myeloperoxidase (MPO), a neutrophil-specific marker released from primary granules, is indicative of the extravasation of pro-inflammation neutrophils from blood into the skin. Thus, to determine whether a test compound prevents, inhibits, modulates or attenuates inflammation related to an immunogenic inflammatory pathway or neutrophil influx, ear biopsies from treated and untreated mouse ears may be extracted and quantitated according to a modified method of Bradley, P.O., et al. (1982) J. Invest Dermatology 78:206-209, which is herein incorporated by reference. Specifically, ear bores from each treatment group from mouse ear edema assays from part A above were pooled and homogenized in 80 mM sodium phosphate buffer (pH 5.4) comprising 0.5% hexadecyltrimethylammonium bromide in a siliconized glass test tube for 1 minute at 0° C. using a Brinkman Polytron. The mixtures were centrifuged at 10,000×g at 4° C. for 30 minutes. 10 μl samples from each group were then assayed in a 96-well microtiter plate. The assay was initiated by adding 250 μl of o-dianisi-dine/phosphate reagent (0.28 mg of dianisidine added to 1 ml of 50 mM sodium phosphate comprising 0.0015 H2O2) to each well. After a 30 minute incubation at 37° C., the plates were read at 450 nm on a Molecular Devices microplate reader. Diluted control biopsies were utilized to develop a standard curve. Optical density values from drug-treated groups were compared to control groups to determine the % of control values of enzyme activity.
# [3] = test system: RTX-induced mouse ear edema; test: Resiniferatoxin (RTX)-induced mouse ear edema assay; format: in vivo; settings: systemic
# Description: Various dilutions of test compounds were topically applied in acetone to the inside and outside surfaces of the left ears of mice in a solution comprising 0.1 μg RTX or 250 μg CAP per ear. A control, acetone, was applied to all right ears. After a 30 minute incubation, the mice were sacrificed, the ears removed, and bores taken and weighed.
# For systemic studies, the test compounds were administered by intraperitoneal injection in a vehicle comprising 20% propylene glycol, 80% saline and 3 drops TWEEN-20 30 minutes or 1 hour prior to topical application of RTX or CAP. Control animals were injected with vehicle only. 0.1 μg RTX or 250 μg CAP was applied to the left ears and acetone was applied to the right ears. After 30 minutes of incubation, the mice were scarified, ears removed and bores taken and weighed.
# Edema was measured by subtracting the weight of the right ear (control) from the weight of the left ear. The results were recorded as % decrease (inhibition) or % increase (potentiation) in edema relative to the control group edema.
# [4] = test system: PMA-induced cell proliferation in mouse ear epidermis; test: Mouse ear cell proliferation assay (IUdR incorporation, PCNA histology); format: in vivo
# Description: To determine the efficacy of scytonemin as an anti-proliferative agent in vivo, the following assay was conducted. On day one, test compounds were delivered in 10 μl 20% DMSO, 80% acetone and applied to both the inner and outer pinnae of left ears (20 μl total) of male, Swiss Webster mice (Taconic Farms, Germantown, N.Y.). The right ears received only vehicle. One hour post test compound application, 4 μg/ear PMA (Sigma, St. Louis, Mo.) in 10 μl acetone was applied to the inner pinnae of each left ear and 10 μl acetone was applied to each right ear. Four hours post test compound application, the each test compound was again applied in the same manner. On day two, the test compounds were applied twice with a four-hour interval between each application. On day three, the test compounds and PMA were applied as they had been on day one.
# One hour after the final test compound applications, each mouse was injected with 0.6 ml of a solution containing the thymidine analogue, 5-iodo-I^125-2′-deoxyuridine (IUdR) (2 μCi-I^125/mouse) and, to inhibit the endogenous deoxythymidilic acid synthetase, fluorodeoxyuridine (FUdR) ([…]). This IUdR/FUdR solution was made up in RPMI 1640 media. Eighteen hours post injection, the mice were euthanized via CO2 inhalation, the ears were excised and soaked individually in a 70% EtOH solution overnight.
# IUdR incorporation was then measured using a Beckman Gamma counter, Model 5500B. […] Therefore, scytoneman compounds may be used to reduce, prevent, inhibit, modulate, or attenuate cell proliferation.
# Additionally, immunostaining with Proliferating Cell Nuclear Antigen (PCNA) was used as a proliferation marker to identify proliferating cells. PCNA is a cofactor for DNAt […]. Expression levels of PCNA fluctuate over the cell cycle. […] Low expression levels of PCNA indicate non-cycling cells.
# Histological analysis was used to determine the effect of scytonemin on the thickness of the epidermal layer of skin, the mitotic index of cells in the epidermal layer, the number of cells in the epidermis, and the amount of immune cell infiltration. PCNA antibodies were used to detect the presence of PCNA in cells and a peroxidase-Ni/DAB development system was used to stain PCNA-positive cells black and hematoxlin was used as a nuclear blue counterstain using conventional methods.
# LPS-stimulated monocytes = test: Proinflammatory mediator production in LPS-stimulated monocytes; format: cell-based
substance,measurement,setting,value
scytonemin,ED50 PMA-induced mouse ear edema and tissue myeloperoxidase activity,[1],about 10.9±5 μg per ear
same,inhibition of MPO activity,[2]; 1 μg scytonemin,about 19%
same,inhibition of MPO activity,[2]; 5 μg scytonemin,~18%
same,inhibition of MPO activity,[2]; 10 μg scytonemin (fourth dose listed),~90%
same,inhibition of MPO activity,[2]; 10 μg scytonemin (third dose listed),~68%
same,inhibition of topical RTX-induced mouse ear edema,[3]; 25 mg/kg,15%
same,inhibition of topical RTX-induced mouse ear edema,[3]; 50 mg/kg,18%
same,inhibition of topical RTX-induced mouse ear edema,[3]; 150 mg/kg,47%
same,cells actively proliferating (PCNA staining),"[4]; +PMA 4 μg/ear, scytonemin 1 mg/ear, dexamethasone 0.15 mg/ear",about 60%
same,mitotic index of epidermal cells,"[4]; PMA-treated mouse ears, 5% SCY",reduces the mitotic index
same,cell proliferation in vivo (IUdR incorporation),"[4]; topical, PMA 4 μg/ear",effectively reduced or prevented cell proliferation in vivo
same,IL-1β production,LPS-stimulated monocytes,reduces
same,PGE2 production,LPS-stimulated monocytes,reduces
same,TNFα production,LPS-stimulated monocytes,reduces
